Legend:
[1] = Photostability study (continuous irradiation in a spectrofluorimeter); assay type: physicochemical; conditions: solutions matched by optical density 0.03 at 560 nm, aqueous buffer pH 9, continuous irradiation at 560 nm
Method: For example, solutions of each were matched by optical density (0.03 at 560 nm in aqueous buffer at pH 9), then continuously irradiated in a spectrofluorimeter at 560 nm for 30 minutes. Over the duration of the experiment, resorufin photobleached to a greater extent than any of the fluorinated analogs.

[2] = target: T1, horseradish peroxidase (HRP) (Armoracia rusticana, UniProt P00433); test: Detection of horseradish peroxidase activity at acidic pH; assay type: biochemical; conditions: for Z-factor: pH 5.5, 50 μM H2O2, 60 minutes at 30° C.; for Lower limit of detection of HRP activity: pH 5.5, dye as reporting fluorogenic substrate
T1 sequence (P00433 31-338): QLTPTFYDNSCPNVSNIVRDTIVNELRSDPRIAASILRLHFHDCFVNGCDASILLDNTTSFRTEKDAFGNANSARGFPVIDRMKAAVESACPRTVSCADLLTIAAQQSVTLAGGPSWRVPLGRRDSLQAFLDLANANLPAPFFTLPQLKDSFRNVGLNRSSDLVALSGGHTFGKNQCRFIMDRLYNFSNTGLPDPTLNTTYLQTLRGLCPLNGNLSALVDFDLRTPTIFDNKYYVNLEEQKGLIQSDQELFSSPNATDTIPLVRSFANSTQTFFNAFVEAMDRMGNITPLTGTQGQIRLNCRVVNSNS
Method: A dilution series of horseradish peroxidase (HRP; EC 1.11.1.7) was prepared in 0.1 M sodium acetate, pH 5.5. The enzyme dilutions were added to a CoStar 96-well round bottom plate in 50 μL aliquots. Mixtures containing 100 μM hydrogen peroxide (H2O2), 0.1 M sodium acetate, pH 5.5, and 100 μM Amplex Red or 100 μM Compound 4 were prepared, and reactions were initiated by addition of 50 μL of reagent mixture to the enzyme dilution series. Reactions were done in triplicate, for 60 minutes at 30° C. Fluorescence was measured with a CytoFluor® Series 4000 Multi-Well Plate Reader (PerSeptive Biosystems, Framingham, Mass.), 530+/−12.5 nm excitation, 580+/−25 nm emission. The fluorescent signal was graphed as a function of HRP concentration (See, FIG. 9) and the Z-factor (Table 6) was calculated according to Zhang et al. (1999).

Myeloperoxidase = target: T2, Myeloperoxidase (Homo sapiens, UniProt P05164); test: Detection of myeloperoxidase; assay type: biochemical; conditions: 125 μM Compound 4, 50 μM hydrogen peroxide, PBS, 37° C.
T2 construct: purchased Sigma M-6908
T2 sequence (P05164 49-745): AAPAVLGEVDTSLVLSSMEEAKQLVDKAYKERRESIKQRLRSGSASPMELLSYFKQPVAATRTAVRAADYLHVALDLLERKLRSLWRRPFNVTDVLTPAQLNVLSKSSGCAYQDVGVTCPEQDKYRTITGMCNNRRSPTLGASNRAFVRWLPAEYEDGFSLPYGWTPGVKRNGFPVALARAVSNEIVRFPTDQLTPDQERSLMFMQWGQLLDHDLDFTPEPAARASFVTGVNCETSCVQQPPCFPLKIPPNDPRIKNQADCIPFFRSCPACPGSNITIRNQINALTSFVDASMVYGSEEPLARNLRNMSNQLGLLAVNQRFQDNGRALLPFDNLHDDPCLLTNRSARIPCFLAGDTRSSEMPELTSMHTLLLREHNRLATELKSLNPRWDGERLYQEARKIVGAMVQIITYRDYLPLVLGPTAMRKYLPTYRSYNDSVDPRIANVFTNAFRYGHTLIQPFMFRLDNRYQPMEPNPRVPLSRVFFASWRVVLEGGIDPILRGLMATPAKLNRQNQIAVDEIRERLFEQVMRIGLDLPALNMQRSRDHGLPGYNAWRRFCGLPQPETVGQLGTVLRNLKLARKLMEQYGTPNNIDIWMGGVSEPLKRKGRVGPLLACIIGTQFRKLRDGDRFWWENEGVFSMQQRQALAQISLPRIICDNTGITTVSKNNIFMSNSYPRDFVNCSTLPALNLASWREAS
Method: Myeloperoxidase (Sigma # M-6908) was diluted to 1 unit/mL using phosphate buffered saline (PBS, 50 mM sodium phosphate, pH 7.4, 150 mM sodium chloride). The solution was then serially diluted two fold using the same buffer. 50 μL of the preparations were added in a 96-well microplate (Nunc # 449824). 20 μL of 625 μM Compound 4 and 30 μl of 165 μM hydrogen peroxide (Aldrich # 323381) in PBS were added to all wells. The final reagent concentration in the wells was zero to 0.5 U/mL myeloperoxidase, 125 μM Compound 4 and 50 μM hydrogen peroxide in 100 μl of PBS.
The resulting reactions were incubated at 37° C. in a PerSeptive Biosystems CytoFluor 4000 microtiter plate reader (Framingham, Mass.). The excitation filter was 530 nm (+/−12.5 nm) and the emission filter 580 nm (+/−25 nm), with a gain setting of 35. Fluorescence was read every five minutes for up to 30 minutes.

COX-2 = target: T3, COX-2 (Mus musculus, UniProt Q05769); test: Detection of LPS-induced COX-2 activity in RAW 264.7 cell lysate; assay type: biochemical; conditions: 40 μM dye, 80 μM arachidonic acid, 200,000 lysed cell equivalents, 37° C., twenty minutes, FIG. 7
T3 construct: RAW 264.7 mouse macrophage cells (ATCC # TIB-71) were grown overnight; endogenous in cells; host or cells: RAW 264.7 mouse macrophage cells (ATCC TIB-71), LPS-treated, sonicated lysate
T3 sequence (Q05769 18-604): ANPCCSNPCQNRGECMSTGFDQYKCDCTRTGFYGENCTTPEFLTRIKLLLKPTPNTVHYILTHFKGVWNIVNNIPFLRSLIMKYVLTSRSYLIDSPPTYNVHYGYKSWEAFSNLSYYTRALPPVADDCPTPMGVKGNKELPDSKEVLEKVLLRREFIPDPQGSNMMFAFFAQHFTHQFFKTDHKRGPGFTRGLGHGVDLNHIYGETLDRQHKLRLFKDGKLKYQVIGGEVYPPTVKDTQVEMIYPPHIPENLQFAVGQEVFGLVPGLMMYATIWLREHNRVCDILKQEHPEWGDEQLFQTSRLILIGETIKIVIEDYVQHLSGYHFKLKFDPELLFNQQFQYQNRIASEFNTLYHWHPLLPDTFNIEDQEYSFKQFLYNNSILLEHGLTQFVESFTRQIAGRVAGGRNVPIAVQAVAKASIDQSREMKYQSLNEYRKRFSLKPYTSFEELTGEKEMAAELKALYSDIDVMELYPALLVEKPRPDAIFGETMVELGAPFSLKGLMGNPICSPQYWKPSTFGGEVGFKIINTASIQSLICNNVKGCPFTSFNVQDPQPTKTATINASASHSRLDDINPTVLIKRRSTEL
Method: The following morning the old media was removed and replaced with 12 ml fresh, warm, DMEM+10% FBS. To one plate, 12 μl of 100 μg/ml lipopolysaccaride (LPS) from E. coli strain 055:B5 (Sigma, catalog #L2880) in water was added. To the other plate, 12 μl of water alone was added. Both plates were incubated for 8 hours, 37° C., 5% CO2. The cells from each plate were gently resuspended into ice-cold 100 mM Tris, pH 7.5 to 4000 cells/μl (counted by hemocytometer). Both batches of cells were lysed with a probe sonicator for 40 seconds with a 30% duty cycle using power output of 3 on a scale of 1 to 10. 50 μl of the resulting cell lysates were added to a 96-well microplate. […] The plate was incubated at room temperature (˜24° C.) for 10 minutes to allow the COX-2 inhibitor time to inhibit the enzyme.
The resulting reactions were incubated at 37° C. in the dark for twenty minutes. At that point, the resulting fluorescence was measured on a PerSeptive Biosystems CytoFluor 4000 microtiter plate reader (Framingham, Mass.). The excitation filter was 530 nm (+/−12.5 nm) and the emission filter 590 nm (+/−17.5 nm), with a gain setting of 50.

[3] = target: T4, Recombinant human cyclooxygenase-2 (COX-2) (Homo sapiens, UniProt P35354); test: Cyclooxygenase-2 assay; assay type: biochemical; conditions: 50 μM dye, 100 μM arachidonic acid, 2 μM hemin, 37° C., thirty minutes, FIG. 2
T4 construct: purchased Cayman Chemical
T4 sequence (P35354 18-604): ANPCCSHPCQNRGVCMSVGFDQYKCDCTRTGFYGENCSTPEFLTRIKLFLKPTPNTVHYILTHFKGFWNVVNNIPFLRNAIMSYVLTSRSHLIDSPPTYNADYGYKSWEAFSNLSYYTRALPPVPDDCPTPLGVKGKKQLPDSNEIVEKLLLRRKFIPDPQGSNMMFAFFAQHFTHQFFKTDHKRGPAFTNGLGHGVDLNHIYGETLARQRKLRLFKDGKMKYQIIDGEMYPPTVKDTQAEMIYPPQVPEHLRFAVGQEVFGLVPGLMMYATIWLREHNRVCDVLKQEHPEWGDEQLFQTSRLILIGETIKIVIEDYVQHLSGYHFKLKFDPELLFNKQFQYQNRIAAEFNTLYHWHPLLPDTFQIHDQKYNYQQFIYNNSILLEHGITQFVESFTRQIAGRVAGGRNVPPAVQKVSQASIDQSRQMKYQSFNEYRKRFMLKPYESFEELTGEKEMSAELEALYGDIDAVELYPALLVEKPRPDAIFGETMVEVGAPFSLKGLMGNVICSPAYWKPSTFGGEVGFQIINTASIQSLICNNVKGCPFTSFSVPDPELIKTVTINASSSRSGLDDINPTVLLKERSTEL
Method: Amplex Red (Molecular Probes, Inc. A-12222) and Compound 4 were resuspended to 10 mM in dry DMSO. Recombinant human cyclooxygenase-2 (COX-2, from Cayman Chemical) was serially diluted (in triplicate for each dye) two-fold in a 96-well microplate in 50 μl of 100 mM Tris, pH 8.0. 10 μl of 20 μM hemin (a COX-2 cofactor) in 100 mM Tris, pH 8.0 was added to all wells. After a five minute incubation at room temperature to allow the hemin to interact with the COX-2 enzyme, 40 μl of either 125 μM Amplex Red+250 μM arachidonic acid or 125 μM Compound 4+250 μM arachidonic acid in 100 mM Tris, pH 8.0 was added to all wells. The final reagent concentrations in the wells was zero to 50 Units/ml COX-2, 2 μM hemin, 100 μM arachidonic acid, and 50 μM Amplex Red reagent or Compound 4 in 100 μl of 100 mM Tris, pH 8.0.
(§1) The resulting reactions were incubated at 37° C. in the dark for thirty minutes. At that point, the resulting fluorescence was measured on a PerSeptive Biosystems CytoFluor 4000 microtiter plate reader (Framingham, Mass.). The excitation filter was 530 nm (+/−12.5 nm) and the emission filter 590 nm (+/−17.5 nm), with a gain setting of 40.

Bovine hemoglobin = target: T5, Bovine hemoglobin (Bos taurus, UniProt P01966+P02070); test: Hemoglobin assay; assay type: biochemical; conditions: 50 μM dye, 50 μM H2O2, 37° C., thirty minutes, FIG. 3
T5 construct: purchased Sigma H-2500
T5 sequence (P01966 2-142 limits assumed): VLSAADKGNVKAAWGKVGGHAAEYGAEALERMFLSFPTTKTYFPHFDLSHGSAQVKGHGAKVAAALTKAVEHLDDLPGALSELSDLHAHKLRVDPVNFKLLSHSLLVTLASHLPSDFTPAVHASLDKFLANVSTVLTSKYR
T5 sequence (P02070 whole entry): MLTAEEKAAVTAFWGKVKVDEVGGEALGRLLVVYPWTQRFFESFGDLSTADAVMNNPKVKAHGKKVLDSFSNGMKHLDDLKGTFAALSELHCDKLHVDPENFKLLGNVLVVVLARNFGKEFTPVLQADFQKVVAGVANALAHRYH
Method: Amplex Red (Molecular Probes Inc. A-12222) and Compound 4 were each resuspended to 10 mM in dry DMSO. Bovine hemoglobin (Sigma, catalog #H-2500) was serially diluted (in triplicate for each dye) two-fold in a 96-well microplate in 50 μl of 50 mM Tris, pH 7.5. 50 μl of either 100 μM Amplex Red+100 μM H2O2 or 100 μM Compound 4+100 μM H2O2 in 50 mM Tris, pH 7.5 was added to all wells. The final reagent concentrations in the wells was zero to 2000 ng/ml bovine hemoglobin, 50 μM H2O2, and 50 μM Amplex Red or Compound 4 in 100 μl of […], pH 7.5.
as §1

In the case of `O=c1ccc2nc3cc(F)c(O)c(F)c3oc-2c1` [Compound 5], the “Fluorescence remaining after irradiation for 30 minutes at 560 nm” value (from here on “Fluorescence remaining after irradiation”) [1] is reported as 96%.

In the case of `CC(=O)N1c2ccc(O)cc2Oc2cc(O)ccc21` [Amplex Red, reference compound], the Z-factor ([2]; HRP 0.016 units/mL) is reported as 1.30, the Z-factor ([2]; HRP 0.063 units/mL) is reported as 0.51 and the Z-factor ([2]; HRP 0.125 units/mL) is reported as 0.69. The Z-factor ([2]; HRP 0.25 units/mL) was 0.85 and the “Lower limit of detection of HRP activity” value [2] was 0.032 units/mL.

In the case of `O=c1ccc2nc3ccc(O)cc3oc-2c1` [resorufin], the “Fluorescence remaining after irradiation” value [1] is reported as 91%.

In the case of `O=c1ccc2nc3c(F)c(F)c(O)c(F)c3oc-2c1` [Compound 9], the “Fluorescence remaining after irradiation” value [1] is reported as 98%.

For `O=c1ccc2nc3cc(F)c(O)cc3oc-2c1` [Compound 7], the “Fluorescence remaining after irradiation” value [1] was 94%.

For `CC(=O)N1c2cc(F)c(O)cc2Oc2cc(O)c(F)cc21` [Compound 4, 2,8-Difluoro-10-acetyl-3,7-dihydroxyphenoxazine], the “Limit of detection of myeloperoxidase” value (Myeloperoxidase) was “about 9.6 ng/mL”, the “Limit of detection of myeloperoxidase” value (Myeloperoxidase; FIG. 10) was 0.0078 U/mL and the Z-factor ([2]; HRP 0.016 units/mL) was 0.72. The Z-factor ([2]; HRP 0.032 units/mL) was 0.89, the Z-factor ([2]; HRP 0.063 units/mL) was 0.90 and the Z-factor ([2]; HRP 0.125 units/mL) was 0.81. The Z-factor ([2]; HRP 0.25 units/mL) was 0.89, the “Signal strength and dynamic range compared with Amplex Red” value ([2]; pH 5.5, FIG. 9) was “significantly greater” and the “Lower limit of detection of HRP activity” value [2] was “less than 0.016 units/mL”. For the same compound, the “Relative fluorescent signal compared with Amplex Red” value (COX-2) was “stronger relative fluorescent signal”, the “Fluorescent signal compared with Amplex Red” value [3] was “greater fluorescent intensity signal” and the “Fluorescence brightness compared with Amplex Red” value (Bovine hemoglobin) was “brighter”.

With `O=c1ccc2nc3c(F)cc(O)cc3oc-2c1` [Compound 8] the “Fluorescence remaining after irradiation” value [1] was 95%.

For `O=c1ccc2nc3ccc(O)c(F)c3oc-2c1` [Compound 6], the “Fluorescence remaining after irradiation” value [1] was 97%.
